Molecules are shown by their SMILES.

This is an account of results in ChEMBL document CHEMBL1134403, “Structure-based approach for the discovery of bis-benzamidines as novel inhibitors of matriptase” (J Med Chem, 2001).

One assay has as its target Prothrombin (Homo sapiens, UniProt P00734). The assay is described as follows: compound was tested for inhibitory activity against Thrombin.
In assay [1] the target is T1, Suppressor of tumorigenicity 14 protein (Homo sapiens, UniProt Q9Y5Y6).
T1 sequence (Q9Y5Y6 whole entry): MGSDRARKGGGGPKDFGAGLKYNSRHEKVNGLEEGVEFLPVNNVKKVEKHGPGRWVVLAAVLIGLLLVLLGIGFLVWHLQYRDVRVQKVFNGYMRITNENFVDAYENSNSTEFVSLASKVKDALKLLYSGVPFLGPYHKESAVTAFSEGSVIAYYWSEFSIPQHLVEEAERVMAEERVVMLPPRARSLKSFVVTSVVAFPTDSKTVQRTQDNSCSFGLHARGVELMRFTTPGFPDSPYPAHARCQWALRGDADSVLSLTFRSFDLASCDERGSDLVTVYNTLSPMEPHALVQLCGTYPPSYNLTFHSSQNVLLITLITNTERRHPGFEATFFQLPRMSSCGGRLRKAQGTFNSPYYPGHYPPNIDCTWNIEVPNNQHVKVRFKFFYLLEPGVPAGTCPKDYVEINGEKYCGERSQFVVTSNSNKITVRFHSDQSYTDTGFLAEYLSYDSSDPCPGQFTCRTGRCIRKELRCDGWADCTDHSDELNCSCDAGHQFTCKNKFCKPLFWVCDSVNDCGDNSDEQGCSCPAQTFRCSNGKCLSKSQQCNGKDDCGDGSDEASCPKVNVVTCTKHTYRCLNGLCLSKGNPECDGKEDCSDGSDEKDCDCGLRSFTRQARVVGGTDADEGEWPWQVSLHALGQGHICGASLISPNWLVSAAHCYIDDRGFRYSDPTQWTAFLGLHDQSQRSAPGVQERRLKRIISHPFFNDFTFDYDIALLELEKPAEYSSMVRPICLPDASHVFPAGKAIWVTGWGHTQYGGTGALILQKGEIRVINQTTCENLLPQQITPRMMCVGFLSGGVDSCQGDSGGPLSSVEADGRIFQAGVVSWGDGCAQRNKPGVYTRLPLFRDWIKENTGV
Description: compound was tested for inhibitory activity against Matriptase.

By Ki is commonly meant a dissociation constant, usually derived from enzyme kinetics or from competition with a known ligand. Read a high Ki as lower affinity. The compound `N=C(N)c1ccc(OCCCCCCOc2ccc(C(=N)N)cc2I)cc1` had a Ki on Prothrombin of 796 nM.
The same measure, in the same setting: next, `N=C(N)c1ccc(Oc2ccc(Oc3ccc(C(=N)N)cc3)cc2)cc1`: 2670 nM.
In the case of `N=C(N)c1ccc(CCc2ccc(C(=N)N)cc2)cc1`, the Ki in assay [1] was > 10000 nM.
At Prothrombin, `N=C(N)c1ccc(OCCCOc2ccc(C(=N)N)cc2Br)c(Br)c1` [DIBROMPROPAMIDINE] yielded a Ki of 946 nM.
`N=C(N)c1ccc(OCCCCCCOc2ccc(C(=N)N)cc2)cc1` [HEXAMIDINE] gave an inhibitory constant (Ki) at Prothrombin of 224 nM.
